{"source": "paper PMC12624831", "about": "“Expanding Peptide Chemical Space via Acid-Mediated Arginine Modification” (Organic Letters, 2025)", "system": "HEK cells stably expressing a HaloTag-GFP-mitochondrial localized construct", "experiment": "Chloroalkane penetration/permeability assay (CAPA)", "assay_type": "in vitro ADME", "details": "modified peptide versus its unmodified control (ct-1l, ct-1m)", "procedure": "at room temperature. Peptides were synthesized using standard protocols. Peptides were cleaved from the resin using a cocktail of 95:5, trifluoroacetic acid:water for 2 h. The resin was removed by filtration, and the resulting solution was concentrated via air flow. The residue was washed with cold ether (3 x 10 mL), precipitating a white solid. Ether was removed via vacuum overnight. The white solid was diluted with ACN/H2O mixture. The resulting solution was purified by HPLC.\nVI. BD FACSymphony™ Flow Cytometer. Flow cytometry analysis was performed on a BD FACSymphony™ system equipped with decagon (2-10 PMTs) or cascade (2-20 PMTs) detector arrays. […] Signal detection combines PMTs (side scatter/fluorescence) and photodiodes (forward scatter), with longpass dichroic and bandpass filters for wavelength selection. […] The absorbance of the molecule is 533 nm and emission is […]\nVII. […] After recovery from selection and reaching near-confluency, the cells were deemed ready for CAPA experiments. […]\nExperimental Protocol Design Control Implementation. […] No-molecule control wells receive only dilution buffer during the pulse step, thereby establishing the maximum red fluorescence baseline. […]", "note": "*1 amine or outer side, *2 acyl side, *3 side chain or, on linkers, in order; H or OH if unused. Where a SMILES comes first, the peptide text is derived from it. [ ]: non-standard residue; d: D form. The star is where a group is joined. NH(CH2CH2O)2(CH2)6Cl = ClCCCCCCOCCOCCN*; Suc = O=C(CCC(=O)[*:2])[*:1]; 2Pyrimidinyl = c1cnc(*)nc1; Orn = NCCC[C@H](N)C(=O)O"}
{"smiles": "CC[C@H](C)[C@H](NC(=O)[C@H](CO)NC(=O)[C@@H](NC(=O)[C@@H]1CCCN1C(=O)[C@H](CCCNc1ncccn1)NC(=O)[C@H](Cc1c[nH]c2ccccc12)NC(=O)CCC(=O)NCCOCCOCCCCCCCl)C(C)C)C(N)=O", "note": "[ct-2l] ({NH(CH2CH2O)2(CH2)6Cl-Suc}-W[Orn](2Pyrimidinyl)PVSI-NH2)", "values": [{"measurement": "increase in membrane permeability following conversion of arginine into the amino pyrimidine derivative", "result": 2, "unit": "fold"}]}
{"smiles": "CC(C)[C@H](NC(=O)CCC(=O)NCCOCCOCCCCCCCl)C(=O)NCC(=O)N[C@@H](CCCNc1ncccn1)C(=O)N[C@@H](C)C(=O)N[C@@H](Cc1c[nH]c2ccccc12)C(=O)N[C@@H](CC(N)=O)C(=O)N[C@@H](Cc1ccc(O)cc1)C(=O)N[C@@H](C)C(N)=O", "note": "[ct-2m] ({NH(CH2CH2O)2(CH2)6Cl-Suc}-VG[Orn](2Pyrimidinyl)AWNYA-NH2)", "values": [{"measurement": "increase in membrane permeability following conversion of arginine into the amino pyrimidine derivative", "result": 2, "unit": "fold"}]}
